# Laboratory results from PMC6270420, “Antibacterial Activity of Salicylanilide 4-(Trifluoromethyl)benzoates” (Molecules, 2013).
# Where two headings read alike, the source gives them in different places.
# Legend:
# [1] = tested on: Mycobacterium avium 330/88; assay: Antimycobacterial MIC micromethod; format: cell-based
# [2] = tested on: M. kansasii 6509/96 (clinically isolated strain); assay: Antimycobacterial MIC micromethod; format: cell-based; settings: Mycobacterium kansasii, read-out: MIC M. kansasii 6509/96
# Mtb. 7357/1988 = assay: microbe, parasite or virus in culture; format: cell-based; settings: Mycobacterium tuberculosis, read-out: MIC Mtb. 7357/1988
# Mtb. 9449/2006 = assay: microbe, parasite or virus in culture; format: cell-based; settings: Mycobacterium tuberculosis, read-out: MIC Mtb. 9449/2006
# Mtb. 53/2009 = assay: microbe, parasite or virus in culture; format: cell-based; settings: Mycobacterium tuberculosis, read-out: MIC Mtb. 53/2009
# Mtb. 234/2005 = assay: microbe, parasite or virus in culture; format: cell-based; settings: Mycobacterium tuberculosis, read-out: MIC Mtb. 234/2005
# Mtb. Praha 1 = assay: microbe, parasite or virus in culture; format: cell-based; settings: Mycobacterium tuberculosis, read-out: MIC Mtb. Praha 1
# Mtb. Praha 131 (XDR-TB) = assay: microbe, parasite or virus in culture; format: cell-based; settings: Mycobacterium tuberculosis, read-out: MIC Mtb. Praha 131 (XDR-TB)
# [3] = target: T1, mycobacterial isocitrate lyase (ICL1, Rv0467) (Mycobacterium tuberculosis, UniProt P9WKK7); assay: Isocitrate lyase inhibition assay (ICL1); format: biochemical, Mycobacterium tuberculosis H37Rv; settings: 10 μmol/L; read-out: % ICL inhibition at 10 μmol/L (± standard deviation)
# T1 construct: His tag (from pET-28b(+)); made in house; host or cells: E. coli BL21(DE3), pET-28b(+) plasmid
# T1 sequence (P9WKK7 1-428): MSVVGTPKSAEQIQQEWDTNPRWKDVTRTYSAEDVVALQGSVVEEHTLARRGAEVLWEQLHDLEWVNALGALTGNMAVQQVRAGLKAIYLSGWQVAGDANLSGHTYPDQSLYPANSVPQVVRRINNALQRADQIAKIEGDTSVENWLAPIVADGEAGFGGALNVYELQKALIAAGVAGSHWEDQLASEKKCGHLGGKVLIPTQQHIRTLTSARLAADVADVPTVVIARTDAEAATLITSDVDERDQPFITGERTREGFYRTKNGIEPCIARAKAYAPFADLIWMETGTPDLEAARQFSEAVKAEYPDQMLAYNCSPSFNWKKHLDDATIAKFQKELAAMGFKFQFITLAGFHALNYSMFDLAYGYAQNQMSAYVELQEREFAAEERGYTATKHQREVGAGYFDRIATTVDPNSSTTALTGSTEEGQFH
# [4] = tested on: Enterococcus sp. J 14365/08; assay: Antibacterial microdilution broth method; format: cell-based; settings: read-out: MIC/IC90 Enterococcus sp. J 14365/08
# Outline: (§1)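 Mueller-Hinton broth pH 7.4; M07-A07-based microdilution; cpds in DMSO, final 500–0.49 […]; inoculum 0.5 McFarland; 35 °C, dark, humid, 24 and 48 h; MIC = ≥90% growth reduction vs control, visual + A540.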
# [5] = tested on: Escherichia coli CCM 4517; assay: Antibacterial microdilution broth method; format: cell-based; settings: read-out: MIC/IC90 E. coli CCM 4517
# Outline: as §1
# [6] = tested on: Staphylococcus aureus CCM 4516/08; assay: Antibacterial microdilution broth method; format: cell-based; settings: read-out: MIC/IC90 S. aureus CCM 4516/08
# Outline: as §1
# [7] = tested on: Staphylococcus epidermidis H 6966/08; assay: Antibacterial microdilution broth method; format: cell-based; settings: read-out: MIC/IC90 S. epidermidis H 6966/08
# Outline: as §1
# [8] = tested on: methicillin-resistant Staphylococcus aureus H 5996/08 (MRSA); assay: Antibacterial microdilution broth method; format: cell-based; settings: read-out: MIC/IC90 MRSA H 5996/08
# Outline: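 MIC values reflect a 90% or greater drop in growth relative to control, judged by eye and by absorbance at 540 nm. Testing used a modified M07-A07 broth microdilution in pH 7.4 Mueller-Hinton medium over 500–0.49 […] final compound, with 24 h and 48 h incubation at 35 °C.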
Compound,"MIC ([1]; 330/88, 336 h, 14 d)","MIC ([1]; 330/88, 504 h, 21 d)","MIC ([2]; 168 h, 7 d)","MIC ([2]; 336 h, 14 d)","MIC ([2]; 504 h, 21 d)",MIC (Mtb. 7357/1988; 336 h),MIC (Mtb. 7357/1988; 504 h),MIC (Mtb. 9449/2006; 336 h),MIC (Mtb. 9449/2006; 504 h),MIC (Mtb. 53/2009; 336 h),MIC (Mtb. 53/2009; 504 h),MIC (Mtb. 234/2005; 336 h),MIC (Mtb. 234/2005; 504 h),MIC (Mtb. Praha 1; 336 h),MIC (Mtb. Praha 1; 504 h),MIC (Mtb. Praha 131 (XDR-TB); 336 h),MIC (Mtb. Praha 131 (XDR-TB); 504 h),inhibition at 10 µM [3],"MIC ([4]; SP.J14365/08, 24 h)","MIC ([4]; SP.J14365/08, 48 h)",also measured
O=C(Oc1ccc(Cl)cc1C(=O)Nc1ccc(Cl)c(Cl)c1)c1ccc(C(F)(F)F)cc1 [1e],4 µM,4 µM,1 µM,2 µM,4 µM,1 µM,2 µM,2 µM,2 µM,2 µM,4 µM,1 µM,2 µM,1 µM,2 µM,2 µM,2 µM,18 ± 1.5%,0.49 µM,3.9 µM,"MIC ([5]; CCM4517, 24 h): > 500 µM; MIC ([5]; CCM4517, 48 h): > 500 µM; MIC ([6]; CCM4516, 24 h): 0.49 µM; MIC ([6]; CCM4516, 48 h): 0.98 µM; MIC ([7]; H6966/08, 24 h): 0.49 µM; MIC ([7]; H6966/08, 48 h): 0.98 µM; MIC ([8]; 24 h): 0.49 µM; MIC ([8]; 48 h): 0.98 µM"
O=C(Oc1cc(Cl)ccc1C(=O)Nc1ccc(Br)cc1)c1ccc(C(F)(F)F)cc1 [1j],8 µM,8 µM,2 µM,4 µM,4 µM,2 µM,2 µM,2 µM,2 µM,2 µM,2 µM,2 µM,2 µM,2 µM,2 µM,1 µM,2 µM,14 ± 4%,1.95 µM,7.81 µM,"MIC ([5]; CCM4517, 24 h): 250 µM; MIC ([5]; CCM4517, 48 h): > 250 µM; MIC ([6]; CCM4516, 24 h): 0.49 µM; MIC ([6]; CCM4516, 48 h): 0.98 µM; MIC ([7]; H6966/08, 24 h): 0.49 µM; MIC ([7]; H6966/08, 48 h): 0.98 µM; MIC ([8]; 24 h): 0.49 µM; MIC ([8]; 48 h): 0.98 µM"
"O=C(Oc1ccc(Cl)cc1C(=O)Nc1ccc(C(F)(F)F)cc1)c1ccc(C(F)(F)F)cc1 [1o, 4-chloro-2-[4-(trifluoromethyl)phenylcarbamoyl]phenyl 4-(trifluoromethyl)benzoate]",1 µM,4 µM,1 µM,2 µM,2 µM,0.5 µM,1 µM,1 µM,1 µM,1 µM,1 µM,0.5 µM,1 µM,0.5 µM,0.5 µM,0.5 µM,1 µM,13 ± 1.2%,7.81 µM,62.5 µM,"MIC ([5]; CCM4517, 24 h): > 125 µM; MIC ([5]; CCM4517, 48 h): > 125 µM; MIC ([6]; CCM4516, 24 h): 3.9 µM; MIC ([6]; CCM4516, 48 h): 7.81 µM; MIC ([7]; H6966/08, 24 h): 3.9 µM; MIC ([7]; H6966/08, 48 h): 7.81 µM; MIC ([8]; 24 h): 3.9 µM; MIC ([8]; 48 h): 7.81 µM"
